Assay results as given in US10081812B2, “D-amino acid-inducible gene expression system for Rhodosporidium and Rhodotorula” (TEMASEK LIFE SCIENCES LABORATORY LIMITED, priority 2015, dated 2018).

How the values were obtained:
DAO1 mRNA = assay: qRT-PCR of DAO1 mRNA transcripts in R. toruloides cells; assay type: cell-based
Experimental: (§1) For gene induction studies, modified MinAB (MinABs) (28) with carbon source and nitrogen source (NH4NO3) omitted was used as basal medium. Carbon source (10 g/L glucose, 70 mM L-alanine or D-alanine) and nitrogen source (70 mM ammonium sulfate, L-alanine or D-alanine) were supplemented as required. For stress treatments, YPD broth was used as the basal medium and cultured after supplementation of various chemicals, or in harsh conditions. Unless indicated otherwise, cell cultures were conducted in a rotary shaker under 28° C. and 250 rpm.
Total RNA was treated with DNase I (Roche Diagnostics) and recovered by ethanol precipitation to remove the trace DNA. cDNA was synthesized using the iScript™ Reverse Transcription Supermix for RT (Bio-Rad, USA) and real-time PCR was conducted in ABI PRISM 7900HT Sequence Detection System (Life Technologies, USA) using the ABI SYBR® Select Master Mix (Life Technologies, USA). PCR conditions were as followed: an initial 50° C. for 2 min and 95° C. denaturation step for 10 min followed by 40 cycles of denaturation at 95° C. for 15 s, annealing at 60° C. for 1 min. Triplicates were used for all qRT-PCR analyses. The data was acquired using the software SDS 2.4 (Applied Biosystems, Life Technologies, USA) and relative gene expression was calculated against the reference gene ACT1 (nucleotide sequence: SEQ ID NO:89; amino acid sequence: SEQ ID NO:90) with the 2-ΔΔCt method through the RQ Manager software v1.2.1 (Applied Biosystems, USA).
To investigate the regulation DAO1 gene expression, the mRNA level in cells cultured in YPD medium supplemented with D-alanine or L-alanine levels was quantitated by qRT-PCR using the Actin mRNA (ACT1) as the reference. As expected, DAO1 mRNA expression was negligible when cells were cultured in MinABs medium supplemented with L-alanine or ammonium sulfate as the sole nitrogen source (FIG. 4B).

[1] = test system: DAO1 mRNA transcripts / Dao1 protein; settings: induction with D-alanine; cited from earlier work
DAO1 promoter (PDAO1in) = assay: Luciferase reporter assay of 2.2 kb intron 1-containing DAO1 promoter (PDAO1in) reporter strains; assay type: cell-based, R. toruloides; settings: for induction of DAO1 promoter by D-amino acid: 70 mM as the sole carbon and nitrogen source in MinABs, 21 h induction, FIG. 8
Experimental: as §1
Yeast strains transformed with PDAOinx::RtLUC2 cassettes were cultured in YPD broth to mid-exponential phase. Cells were water-washed twice and resuspended in MinABs plus 70 mM of either D-alanine or L-alanine to a cell optical density at 600 nm (OD600) of 0.5 and continued culturing at 30° C., 250 rpm for 21 hr. Cells were harvested, washed and resuspended in PBS buffer supplemented with 1 mM DTT, 3 mM β-mercaptoethanol and 1 mM PMSF (pH7.4) supplemented with equal volume of 0.5 mm glass beads (Sigma-Aldrich, USA), and lysed with FastPrep 24™ 5 G (MP Biomedicals, Irvine, Calif., USA) for 40 seconds. The protein concentration and luciferase activity was determined using Bradford method and a commercial luciferase assay kit (Promega, USA) under the supplier's protocol, respectively. All data was measured and acquired with the Infinite M200 plate reader coupled with the iCycler software (version 3.0, Tecan, Salzburg, Austria). All experiments were performed in both biological and statistical triplicates. For determination of relative promoter activity (RPA), luminescence value was subtracted against the blank or negative control (promoter-less strain), normalized against the protein concentration, then normalized against either the values of PGPD1 or the maximum reading.
To investigate the effects of carbon and nitrogen sources on promoter activity, 3 strains with 2.2 kb intron 1-containing DAO1 promoter (PDAO1in) knocked in at the CAR2 locus were cultured in the modified MinAB medium (MinABs), which had glucose and ammonium sulfate supplemented to the basal medium MinAB when necessary.
Here, substrate selectivity of the 2.2 kb DAO1 promoter (PDAO1in) reporter strains was investigated on their inducibility by different D-amino acids.

C[C@@H](N)C(=O)O [D-alanine]
DAO1 mRNA level relative to control medium (DAO1 mRNA; 6-hr after D-alanine supplementation, both glucose and ammonium sulfate omitted, FIG. 4B): ~100 fold | DAO1 mRNA level increase (DAO1 mRNA; cultured in the presence of 70 mM D-alanine, ACT1 reference, FIG. 4B): 12-18 folds | Dao1 protein share of the soluble intracellular proteins [1]: 1.0% | time of peak of DAO1 mRNA transcripts after induction [1]: ≤ 12 h | induction of DAO1 promoter by D-amino acid (DAO1 promoter (PDAO1in)): most preferably induced | luciferase expression among media (DAO1 promoter (PDAO1in); MinABs supplemented with 70 mM D-alanine only, FIG. 7A): Best luciferase expression | concentration effective in driving expression of the reporter gene (as low as) (DAO1 promoter (PDAO1in); MinABs with 10 g/L glucose, FIG. 7B): 20 mM

CC(C)C[C@@H](N)C(=O)O [D-leucine]
induction of DAO1 promoter by D-amino acid (DAO1 promoter (PDAO1in)): significantly less effective

CSCC[C@@H](N)C(=O)O [D-methionine]
induction of DAO1 promoter by D-amino acid (DAO1 promoter (PDAO1in)): significantly less effective

N[C@H](Cc1ccccc1)C(=O)O [D-phenylalanine]
induction of DAO1 promoter by D-amino acid (DAO1 promoter (PDAO1in)): significantly less effective

O=C(O)[C@H]1CCCN1 [D-proline]
induction of DAO1 promoter by D-amino acid (DAO1 promoter (PDAO1in)): similarly effective

N[C@H](CO)C(=O)O [D-serine]
induction of DAO1 promoter by D-amino acid (DAO1 promoter (PDAO1in)): similarly effective

C[C@H](O)[C@@H](N)C(=O)O [D-threonine]
induction of DAO1 promoter by D-amino acid (DAO1 promoter (PDAO1in)): similarly effective

N[C@H](Cc1c[nH]c2ccccc12)C(=O)O [D-tryptophan]
induction of DAO1 promoter by D-amino acid (DAO1 promoter (PDAO1in)): significantly less effective

CC(C)[C@@H](N)C(=O)O [D-valine]
induction of DAO1 promoter by D-amino acid (DAO1 promoter (PDAO1in)): similarly effective

C[C@H](N)C(=O)O [L-alanine]
DAO1 mRNA expression (DAO1 mRNA; MinABs medium, substance as the sole nitrogen source, FIG. 4B): negligible | reduction of luciferase expression (DAO1 promoter (PDAO1in); equal level (70 mM) added as the competitor to 70 mM D-alanine, after 21 hr culture, FIG. 7A): about 5 fold

N.N.O=S(=O)(O)O [ammonium sulfate]
effect on D-alanine-induced DAO1in promoter activity (DAO1 promoter (PDAO1in); added to MinABs with 70 mM D-alanine, glucose 10 g/L, ammonium sulfate 70 mM, FIG. 7A): little effect | effect of concentration on DAO1 promoter activity (DAO1 promoter (PDAO1in); glucose 10-100 g/L, ammonium sulfate 5-50 mM, with 70 mM D-alanine, FIGS. 7C and 7D): only marginal effects

OCC(O)CO [glycerol]
DAO1 transcription compared to that of glucose (DAO1 mRNA; substance as the sole carbon source (YPG broth), 6 hour, 28° C., FIG. 4C): enhance DAO1 transcription
